Assay results: US7968752B2, “Hydrolytically-resistant boron-containing therapeutics and methods of use” (Anacor Pharmaceuticals, Inc., priority 2003, dated 2011)
Values after ≈ are worked out from the molar mass of the structure shown.

What was measured:
[1] = test system: S. pneumoniae ATCC 6301; assay: MIC determination (NCCLS broth microdilution); type: cell-based; conditions: 24 hours at 34° C., lowest concentration with >=80% inhibition; for MIC: Streptococcus pneumoniae, ATCC6301
[2] = test system: S. faecalis ATCC 29212; assay: MIC determination (NCCLS broth microdilution); type: cell-based; conditions: 24 hours at 34° C., lowest concentration with >=80% inhibition; for MIC: Enterococcus faecalis, ATCC29212
[3] = test system: S. aureus ATCC 29213; assay: MIC determination (NCCLS broth microdilution); type: cell-based; conditions: 24 hours at 34° C., lowest concentration with >=80% inhibition; for MIC: Staphylococcus aureus, ATCC29213
[4] = test system: S. epidermidis ATCC 12228; assay: MIC determination (NCCLS broth microdilution); type: cell-based; conditions: 24 hours at 34° C., lowest concentration with >=80% inhibition; for MIC: Staphylococcus epidermidis, ATCC12228
[5] = test system: S. faecium CT-26; assay: MIC determination (NCCLS broth microdilution); type: cell-based; conditions: 24 hours at 34° C., lowest concentration with >=80% inhibition; for MIC: Enterococcus faecium, CT26
[6] = in vitro; conditions: human
[7] = Cytotoxicity in HCV RNA replicon assay; conditions: human, ET cell line (luc-ubi-neo/ET)
[8] = test system: 17D strain YFV virus; assay: microbe, parasite or virus in culture; type: cell-based, Yellow Fever (YFV); conditions: Yellow fever virus, HeLa, 168 h, read-out: Anti-Yellow Fever Activity IC50
[9] = test system: HBV ayw1 strain; assay: HepG2 2.15 Antiviral Evaluation Assay; type: cell-based; conditions: Hepatitis B virus; HepG2 2.2.15 cells; read-out: Anti-Hepatitis B Activity IC50
Description: (§1) HepG2 2.15 Antiviral Evaluation Assay—HepG2 2.2.15 cells, which produce HBV ayw1 strain, were plated in 96-well collagencoated microtiter plates at a density of 2.5×10^4/well with DMEM medium supplemented with 2% fetal bovine serum. One day following plating of cells, the wells were washed and the medium was replaced with complete medium containing the test compound diluted in the medium in a half-log series.
(§2) The medium was replaced once with the fresh medium containing the freshly diluted compound three days post the initial addition of the lamivudine, a positive control compound. Cell viability was determined using CellTiter 96® Reagent (Promega, Madison, Wis.) according to the manufacturer's protocol, using a Vmax plate reader (Molecular Devices, Sunnyvale, Calif.). The mixture is metabolized by the mitochondrial enzymes of metabolically active cells to a soluble formazan product, allowing the rapid quantitative analysis of cell numbers. The media was removed and replaced with 100 μl of fresh media and 10 μl of Cell Titer 96. […] Percent cell viability of compound treated wells compared to no compound controls was calculated using an in-house computer program which graphs the percent reduction in viral cytopathic effects and the cell numbers at each drug concentration relative to control values.

[10] = Cell viability (CellTiter 96) in HepG2 2.15 assay; type: cell-based; conditions: human, HepG2 2.2.15 cells (produce HBV ayw1 strain); read-out: Anti-Hepatitis B Activity TC50
Description: as §1, §2

Structure (SMILES) | MIC S. pneumoniae ATCC 6301 [1] [micrograms per ml] | MIC S. faecalis ATCC 29212 [2] [micrograms per ml] | MIC S. aureus ATCC 29213 [3] [micrograms per ml] | MIC S. epidermidis ATCC 12228 [4] [micrograms per ml] | MIC S. faecium CT-26 [5] [micrograms per ml] | MIC [1] [µg/mL] | CC50 at 7 day [6] [µM] | MIC [2] [µg/mL] | CC50 at 72 hr [7] [nM] | MIC [3] [µg/mL] | IC50 [8] [nM] | MIC [4] [µg/mL] | MIC [5] [µg/mL] | IC50 [9] [nM] | CC50 [10] [µM]
CC1(C)S[C@@H]2[C@H](NC(=O)Cc3ccccc3)C(=O)N2[C@H]1C(=O)O [Pen G, reference compound] | 0.125 | 1 | 0.5 | 16 | 32 |  |  |  |  |  |  |  |  |  | 
N#Cc1cccc(B2OCc3cc(F)ccc32)c1 [Compound 20, 3-(5-Fluorobenzo[c][1,2]oxaborol-1(3H)-yl)benzonitrile] |  |  |  |  |  | 8 (≈ 33.7 µM) | 21 | 64 (≈ 270 µM) | 5990 | 1 (≈ 4.22 µM) | 1620 | 16 (≈ 67.5 µM) | 64 (≈ 270 µM) |  | 
N#Cc1cccc(B2OCc3ccc(F)cc32)c1 [Compound 21, 3-(6-Fluorobenzo[c][1,2]oxaborol-1(3H)-yl)benzonitrile] |  |  |  |  |  | 8 (≈ 33.7 µM) | 15.8 | 64 (≈ 270 µM) | 690 | 8 (≈ 33.7 µM) | 2360 | 16 (≈ 67.5 µM) | 64 (≈ 270 µM) |  | 
Clc1ccc(B2OCc3ccccc32)cc1 [Compound 17, 1-(4-Chlorophenyl)-1,3-dihydrobenzo[c][1,2]oxaborole] |  |  |  |  |  | 4 (≈ 17.5 µM) | 6.42 | 16 (≈ 70 µM) | 260 | 2 (≈ 8.75 µM) | 1560 | 2 (≈ 8.75 µM) | 16 (≈ 70 µM) |  | 
NCc1cccc(B2OCc3cc(F)ccc32)c1 [Compound 24] |  |  |  |  |  | 16 (≈ 66.4 µM) |  | 32 (≈ 133 µM) |  | 4 (≈ 16.6 µM) |  | 8 (≈ 33.2 µM) | 32 (≈ 133 µM) |  | 
CC[C@H]1OC(=O)[C@H](C)[C@@H](O[C@H]2C[C@@](C)(OC)[C@@H](O)[C@H](C)O2)[C@H](C)[C@@H](O[C@@H]2O[C@H](C)C[C@H](N(C)C)[C@H]2O)[C@](C)(O)C[C@@H](C)C(=O)[C@H](C)[C@@H](O)[C@]1(C)O [Erythromycin, reference compound] |  |  |  |  |  |  |  | 2 (≈ 2.73 µM) |  | 0.5 (≈ 0.681 µM) |  | 0.5 (≈ 0.681 µM) |  |  | 
Clc1cccc(B2OCc3ccccc32)c1 [Compound 12, 1-(3-Chlorophenyl)-1,3-dihydrobenzo[c][1,2]oxaborole] |  |  |  |  |  | 8 (≈ 35 µM) |  | 16 (≈ 70 µM) | 12700 | 0.5 (≈ 2.19 µM) |  | 2 (≈ 8.75 µM) | 16 (≈ 70 µM) |  | 
Fc1cccc(B2OCc3cc(Cl)ccc32)c1 [Compound 13, 5-Chloro-1-(3-Fluorophenyl)-1,3-dihydrobenzo[c][1,2]oxaborole] |  |  |  |  |  | 4 (≈ 16.2 µM) | 6.22 | 16 (≈ 64.9 µM) | 370 | < 0.125 | 1390 | 0.25 (≈ 1.01 µM) | 8 (≈ 32.5 µM) |  | 
Nc1ccn([C@@H]2CS[C@H](CO)O2)c(=O)n1 [lamivudine, reference compound] |  |  |  |  |  |  |  |  |  |  |  |  |  | 9.3 | > 1
N#Cc1ccc(B2OCc3ccccc32)cc1 [Compound 18, 4-(Benzo[c][1,2]oxaborol-1(3H)-yl)benzonitrile] |  |  |  |  |  | 4 (≈ 18.3 µM) | 6.6 | 32 (≈ 146 µM) |  | 2 (≈ 9.13 µM) | 740 | 2 (≈ 9.13 µM) | 32 (≈ 146 µM) |  | 
C[C@@H](O)[C@H]1C(=O)N2C(C(=O)O)=C(SCCN=CN)C[C@H]12 [Imipenem, reference compound] |  |  |  |  |  | 0.125 (≈ 0.418 µM) |  | 1 (≈ 3.34 µM) |  | 0.125 (≈ 0.418 µM) |  | 0.125 (≈ 0.418 µM) | 64 (≈ 214 µM) |  | 
N#Cc1cccc(B2OCc3ccccc32)c1 [Compound 14, 3-(Benzo[c][1,2]oxaborol-1(3H)-yl)benzonitrile] |  |  |  |  |  | 2 (≈ 9.13 µM) | 6.53 | 32 (≈ 146 µM) | 1140 | 0.25 (≈ 1.14 µM) | 440 | 2 (≈ 9.13 µM) | 16 (≈ 73 µM) |  | 
Cc1onc(-c2ccccc2Cl)c1C(=O)N[C@@H]1C(=O)N2[C@@H]1SC(C)(C)[C@@H]2C(=O)O [Cloxacillin, reference compound] |  |  |  |  |  | 0.125 (≈ 0.287 µM) |  | 16 (≈ 36.7 µM) |  | 0.125 (≈ 0.287 µM) |  | 0.25 (≈ 0.574 µM) | 64 (≈ 147 µM) |  | 
N#Cc1ccc(B2OCc3cc(F)ccc32)cc1 [Compound 19, 4(5-Fluorobenzo[c][1,2]oxaborol-1(3H)-yl)benzonitrile] |  |  |  |  |  | 16 (≈ 67.5 µM) | 17.1 | > 64 | 270 | 8 (≈ 33.7 µM) |  | 16 (≈ 67.5 µM) | > 64 |  | 
CO/N=C(\C(=O)N[C@@H]1C(=O)N2C(C(=O)O)=C(CSc3nc(=O)c(=O)[nH]n3C)CS[C@H]12)c1csc(N)n1 [Ceftriaxone, reference compound] |  |  |  |  |  | 0.125 (≈ 0.225 µM) |  | 64 (≈ 115 µM) |  | 2 (≈ 3.61 µM) |  | 1 (≈ 1.8 µM) | 64 (≈ 115 µM) |  | 
CC1(C)OB(c2cccc(Cl)c2)c2ccccc21 [Compound 16, 1-(3-Chlorophenyl)-1,3-dihydro-3,3-dimethylbenzo[c][1,2]oxaborole] |  |  |  |  |  | 8 (≈ 31.2 µM) |  | 16 (≈ 62.4 µM) |  | 0.5 (≈ 1.95 µM) |  | 2 (≈ 7.8 µM) | 16 (≈ 62.4 µM) |  | 
Fc1ccc2c(c1)COB2c1cccc(Cl)c1 [Compound 11, 1-(3-Chlorophenyl)-5-fluoro-1,3-dihydrobenzo[c][1,2]oxaborole] |  |  |  |  |  | 8 (≈ 32.5 µM) | 4.14 | 32 (≈ 130 µM) | 1290 | < 0.125 | 650 | 1 (≈ 4.06 µM) | 32 (≈ 130 µM) | 2470 | 3.2
Fc1ccc2c(c1)B(c1cccc(Cl)c1)OC2 [Compound 15, 1-(3-Chlorophenyl)-6-fluoro-1,3-dihydrobenzo[c][1,2]oxaborole] |  |  |  |  |  | 4 (≈ 16.2 µM) | 6.6 | 16 (≈ 64.9 µM) | 540 | 0.5 (≈ 2.03 µM) | 1190 | 2 (≈ 8.11 µM) | 8 (≈ 32.5 µM) |  | 
NCc1ccc(B2OCc3cc(F)ccc32)cc1 [Compound 23] |  |  |  |  |  | 8 (≈ 33.2 µM) |  | 16 (≈ 66.4 µM) |  | 2 (≈ 8.3 µM) |  | 8 (≈ 33.2 µM) | 16 (≈ 66.4 µM) |  | 
